Source: PubChem BioAssay (NCI)
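Where inhibition never reached the appropriate level, the endpoint shown equals the highest concentration tested. Otherwise, values were interpolated linearly from a five-concentration, 48-hour dose response in 96-well plates. Abbreviation: GI50, concentration required for 50% inhibition of growth. TGI: total growth inhibition.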 Where a SMILES comes first, the peptide text is derived from it. [ ]: non-standard residue; d: D form. The star is where a group is joined. ξ: configuration not given here. NMeF = CN[CH](Cc1ccccc1)C(=O)O; ξNMe2Val = CC(C)C(C(=O)*)N(C)C; NMeV = CN[CH](C(=O)O)C(C)C; OtBu = CC(C)(C)O*

Columns and labels:
Experiment in all cases: NCI tumour cell line growth inhibition, 48 h
XF 498 CNS = tested on: XF 498 CNS
DMS 114 small cell lung = tested on: DMS 114 small cell lung
M19-MEL melanoma = tested on: M19-MEL melanoma
DMS 273 small cell lung = tested on: DMS 273 small cell lung
LXFL 529 NSCLC = tested on: LXFL 529 NSCLC
DLD-1 colon = tested on: DLD-1 colon
RXF-631 renal = tested on: RXF-631 renal
HOP-18 NSCLC = tested on: HOP-18 NSCLC
P388 leukemia = tested on: P388 leukemia
SN12K1 renal = tested on: SN12K1 renal
P388/ADR leukemia = tested on: P388/ADR leukemia

SMILES | TGI (XF 498 CNS) | TGI (DMS 114 small cell lung) | TGI (M19-MEL melanoma) | TGI (DMS 273 small cell lung) | TGI (LXFL 529 NSCLC) | TGI (DLD-1 colon) | TGI (RXF-631 renal) | TGI (HOP-18 NSCLC) | GI50 (DLD-1 colon) | GI50 (HOP-18 NSCLC) | TGI (P388 leukemia) | TGI (SN12K1 renal) | TGI (P388/ADR leukemia)
COc1ccc([C@H]2CC3C(=O)N(c4ccc(OC)cc4)C(=O)C3c3[nH]c4ccccc4c32)cc1 (stereo partly specified) | 95.9 µM | > 100 µM | > 100 µM | > 100 µM | > 100 µM | > 100 µM |  |  |  |  |  |  | 
O=S(O)c1cc(Cl)c(O)c(Cl)c1 | > 100 µM | > 100 µM | > 100 µM |  | > 100 µM | > 100 µM | > 100 µM |  |  |  |  |  | 
COc1ccc(NC(=O)C(=O)Cc2ccc([N+](=O)[O-])c([N+](=O)[O-])c2CC(=O)C(=O)Nc2ccc(OC)cc2OC)c(OC)c1 |  | > 100 µM | > 100 µM | > 100 µM | > 100 µM | > 100 µM | > 100 µM | > 100 µM |  |  |  |  | 
CSC(C1c2ccccc2N(C)c2[nH]c(=O)n(C)c(=O)c21)S(=O)(=O)c1ccc(C)cc1 (stereo unspecified) | > 100 µM | > 100 µM | > 100 µM | > 100 µM | > 100 µM | > 100 µM |  | > 100 µM |  |  |  |  | 
Cc1nn2c(c1C#N)NNc1c-2sc(=N)nnc1=O |  |  | > 100 µM |  | > 100 µM | > 100 µM |  | > 100 µM |  |  |  |  | 
Brc1ccc(-c2cc3c(cc2C2SCCS2)OCO3)cc1 | > 100 µM | > 100 µM | > 100 µM | > 100 µM | > 100 µM | > 100 µM |  | > 100 µM |  |  |  |  | 
O=C1C(=C([O-])c2ccccc2)C(=O)c2ccccc21.O=C1C(=C([O-])c2ccccc2)C(=O)c2ccccc21.[Ni+2] |  |  |  |  |  | > 100 µM |  | > 100 µM | 40.2 µM | 27.9 µM |  |  | 
CCO/C(O)=c1/s/c(=C(\C#N)c2nc3ccccc3[nH]2)n(-c2ccccc2)c1=N | > 100 µM |  | > 100 µM | > 100 µM | > 100 µM | > 100 µM |  |  |  |  |  |  | 
CC(C)C(C(=O)N(C)C(Cc1ccccc1)C(=O)N(C)C(C(=O)N(C)C(C(=O)N1CCCC1C(=O)OC(C)(C)C)C(C)C)C(C)C)N(C)C (stereo unspecified) (ξNMe2Val-[NMeF][NMeV][NMeV]P-OtBu; configuration not given here) | 86.1 µM | > 100 µM | > 100 µM | 84.1 µM | > 100 µM |  |  |  |  |  |  |  | 
CC1OC(O[C@@H]2C=C3CC[C@@H]4[C@H](CC[C@]5(C)[C@@H](c6ccc(=O)oc6)CC[C@]45O)[C@@]3(C)CC2)C(O)C(OC2OC(CO)C(O)C(O)C2O)C1O (stereo partly specified) | 0.0276 µM |  | 0.039 µM |  |  | 0.0253 µM |  |  |  |  | 115 µM | 0.025 µM | 142 µM
COc1ccc(C2=Nc3ccccc3N=C(SC)C2)cc1 | > 100 µM | > 100 µM | > 100 µM | > 100 µM | > 100 µM | > 100 µM | > 100 µM | > 100 µM |  |  |  |  | 
COc1ccc(-c2oc3cc(O)c(OC)c(O)c3c(=O)c2O)cc1 | > 100 µM |  | > 100 µM | 30 µM | > 100 µM | 30.8 µM | > 100 µM | > 100 µM |  |  |  |  | 
Cc1ccc(NC(=O)C2C3CCC(O3)C2C(=O)O)cc1 (stereo unspecified) | > 77.8 µM | > 59.8 µM | > 100 µM | > 100 µM | > 74.6 µM | 96.9 µM | > 100 µM | > 100 µM |  |  |  |  | 
CC(=O)OCC1OC(N=[N+]=[N-])C(OC(C)=O)C(OC(C)=O)C1OC1OC(COC(C)=O)C(OC(C)=O)C(OC(C)=O)C1OC(C)=O (stereo unspecified) | > 100 µM | > 100 µM | > 100 µM | > 100 µM | > 100 µM |  | > 100 µM |  |  |  |  |  | 
O=C1Nc2ccc(Cl)c(I)c2C1=O | 34.2 µM | 34.2 µM | 24.9 µM | 30.8 µM | 30.5 µM | 31.4 µM |  |  |  |  |  |  | 
CC#COS(=O)(=O)c1ccc(C)cc1 |  | > 100 µM | > 100 µM |  | > 100 µM | > 100 µM |  |  |  |  |  |  | 
